Here are results for 16 compounds from US20060194800A1, “Pteridine derivatives as nitric oxide synthase activators” (University of Strathclyde, priority 2005, published 2006).

Structures are written as SMILES.

For one assay, the system named is rat pulmonary artery. The assay is described as follows: Rat pulmonary artery ring relaxation (endogenous tetrahydrobiopterin present). The note with it: rat pulmonary artery, normal or DAHP-treated. The protocol:
Rings (5 mm long) of rat pulmonary artery and aorta, were supported on a pair of intraluminal wires at 1 gm tension for one hour and then contracted with their EC50 phenylephrine concentration, which for pulmonary artery was 3.6×10^−8 M (derived from preliminary experiments) and for aorta was 11.8×10^−8 M (from the previously published literature). The rings were then relaxed with carbachol (10 μM). If the relaxation to carbachol was >75%, then the tissues were used to generate dose responses by addition of tetrahydrobiopterin (BH4) or the analogues. Stock BH4 was stored at −20° C. and the dilutions were prepared using saline just before adding the drug into the bath. Solutions of analogues were stored at 4° C. Cumulatively increasing concentrations of the analogues were added to the bath and the extent of relaxation was measured when it had stabilised. Another ring from the same rat was treated in parallel with the solvent for the analogue. The solvent used was NH4OH. The results are shown graphically in FIGS. 1 and 2.
On to `C[C@H](O)[C@H](O)[C@H]1CNc2nc(N)[nH]c(=O)c2N1` [tetrahydrobiopterin, reference compound], for which the “concentrations of tetrahydrobiopterin causing contraction” value is “above 3 μM”.

The target of the next assay is T1, iNOS (Mus musculus, UniProt P29477).
T1 construct: stimulated macrophages that produce iNOS; endogenous in cells; host or cells: primary mouse macrophages (from femur), LPS-stimulated, DAHP-treated
T1 sequence (P29477 whole entry): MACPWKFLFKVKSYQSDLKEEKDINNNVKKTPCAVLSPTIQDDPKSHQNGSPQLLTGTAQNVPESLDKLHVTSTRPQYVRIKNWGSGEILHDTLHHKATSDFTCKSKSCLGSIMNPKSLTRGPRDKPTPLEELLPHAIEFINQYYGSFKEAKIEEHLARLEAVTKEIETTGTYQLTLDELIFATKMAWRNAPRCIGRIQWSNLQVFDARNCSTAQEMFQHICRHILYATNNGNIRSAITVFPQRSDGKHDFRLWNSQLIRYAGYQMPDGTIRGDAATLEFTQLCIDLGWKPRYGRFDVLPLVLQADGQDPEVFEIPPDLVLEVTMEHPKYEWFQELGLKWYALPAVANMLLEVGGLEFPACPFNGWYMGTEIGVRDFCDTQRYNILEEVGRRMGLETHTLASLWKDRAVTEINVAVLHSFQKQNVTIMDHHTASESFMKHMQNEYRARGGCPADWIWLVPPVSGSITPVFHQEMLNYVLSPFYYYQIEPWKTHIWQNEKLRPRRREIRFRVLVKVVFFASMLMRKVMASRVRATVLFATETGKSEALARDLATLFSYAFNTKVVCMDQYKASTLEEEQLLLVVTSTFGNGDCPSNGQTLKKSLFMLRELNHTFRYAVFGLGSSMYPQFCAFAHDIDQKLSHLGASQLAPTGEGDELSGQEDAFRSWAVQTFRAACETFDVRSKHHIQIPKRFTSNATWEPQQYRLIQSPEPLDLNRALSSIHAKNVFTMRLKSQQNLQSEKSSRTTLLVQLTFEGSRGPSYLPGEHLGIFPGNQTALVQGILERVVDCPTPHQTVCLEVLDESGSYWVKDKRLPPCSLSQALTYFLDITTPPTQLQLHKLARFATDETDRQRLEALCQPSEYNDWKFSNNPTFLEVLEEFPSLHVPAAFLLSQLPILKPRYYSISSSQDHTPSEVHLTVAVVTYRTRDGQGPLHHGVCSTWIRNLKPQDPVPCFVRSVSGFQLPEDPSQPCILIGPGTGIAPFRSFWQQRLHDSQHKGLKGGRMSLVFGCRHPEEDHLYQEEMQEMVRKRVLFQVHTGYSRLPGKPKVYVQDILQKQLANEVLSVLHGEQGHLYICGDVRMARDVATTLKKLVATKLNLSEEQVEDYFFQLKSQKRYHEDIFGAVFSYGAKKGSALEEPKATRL
The assay is described as follows: Macrophage assay (iNOS), macrophages depleted of tetrahydrobiopterin by DAHP. The class given is cell-based. The note with it: 72 h; tested at 1 microM in macrophages; P = promotes NOS activity; read-out: iNOS effect *H155.
Description: This is a cell based assay with lipopolysaccharide stimulated macrophages in which nitric oxide is produced by the action of iNOS. Primary cultures of macrophage cells isolated from mouse femur were produced over a 7 day period. At this stage the cells were seeded into 96-well culture plates at a density of 2×10^5 cells per well. After further incubation for 24 hrs, the well media was changed and the relevant treatment was introduced. The cells were then incubated for a further 72 hrs before 50 μl was removed from each well and combined with 100 μl of Greiss reagent for NO2 determination. All treatments were performed in triplicate. In each plate, 3 wells were designated control i.e. media change only-no LPS. These samples represent basal NO2 output over 72 hrs. 3 wells were used for LPS (0.5 μg/ml) stimulation alone and 3 wells were used for LPS+0.05% DMSO. This DMSO concentration was present in all subsequent analogue treated wells. All analogues were tested at 1.0 and 10 μM. In another set of experiments, the assay was repeated with the inclusion of a step to deplete endogenous tetrahydrobiopterin as in the artery ring studies. DAHP pre-treatment was employed to deplete the macrophage cells of endogenous tetrahydrobiopterin. In these experiments, DAHP (10^−2 M) was added to the cells for 24 hrs prior to seeding into 96-well plates and for 24 hrs following the seeding procedure. Thereafter, DAHP was present throughout the analogue treatment period of 72 hrs. […] Macrophages were initially depleted of tetrahydrobiopterin by incubation with DAHP.
On to `CC1(C)Nc2nc(N)[nH]c(=O)c2N=C1CO` [wsg1004, 2-Amino-6-hydroxymethyl-7,7-dimethyl-7,8-dihydro-3H-pteridin-4-one], for which the activation at 1 µM lay within 20 to 50%.
The same measure, in the same setting: in the case of `CC1=Nc2c(nc(N)[nH]c2=O)OC1(C)C` [wsg1019, 2-Amino-6,7,7-trimethyl-3,7-dihydro-pyrimido[4,5-b][1,4]oxazin-4-one] it was less than 20%.
On to `CC1(C)Nc2nc(N)[nH]c(=O)c2N=C1/C=C/c1ccc(Cl)cc1` [wsg1017, 2-Amino-6-[2-(4-chloro-phenyl)-vinyl]-7,7-dimethyl-7,8-dihydro-3H-pteridin-4-one], for which the activation at 1 µM was more than 50%.
Same read-out and setting: in the case of `CC12CCCC1(S(=O)(=O)O)Nc1c(nc(N)[nH]c1=O)N2` (stereo not shown) [wsg1008, 6-Amino-3a-methyl-8-oxo-1,2,3,3a,4,7,8,9-octahydro-4,5,7,9-tetraaza-cyclopenta[b]naphthalene-9a-sulfonic acid] it was 20 to 50%; in that of `Nc1nc2ncc(C=O)nc2c(=O)[nH]1` [wsg1003, 2-Amino-4-oxo-3,4-dihydro-pteridine-6-carbaldehyde], 20 to 50%; in that of `CC1=Nc2c(nc(N)[nH]c2=O)NC1C` (stereo not shown) [wsg1011, 2-Amino-6,7-dimethyl-4-oxo-3,4,7,8-tetrahydro-pteridin-8-ium Cl-], 20 to 50%.
Same read-out and setting: for `CC1(C)Nc2nc(N)[nH]c(=O)c2N=C1Cc1ccccc1` [wsg1012, 2-Amino-6-benzyl-7,7-dimethyl-7,8-dihydro-3H-pteridin-4-one] the value was 20 to 50%; for `Nc1nc2ncc(C(=O)O)nc2c(=O)[nH]1` [wsg1005, 2-Amino-4-oxo-3,4-dihydro-pteridine-6-carboxylic acid], 20 to 50%; for `CC1(CCc2ccccc2)Nc2nc(N)[nH]c(=O)c2N=C1C=O` (stereo not shown) [wsg1016, 2-Amino-7-methyl-4-oxo-7-phenethyl-3,4,7,8-tetrahydro-pteridine-6-carbaldehyde], less than 20%.
On the same count and under the same terms, for `Cc1nc2nc(N)[nH]c(=O)c2nc1C` [wsg1009, 2-Amino-6,7-dimethyl-3H-pteridin-4-one] the value was 20 to 50%.
Turning to `CC12CCCCC1=Nc1c(nc(N)[nH]c1=O)N2` (stereo not shown) [wsg1007, 2-Amino-9a-methyl-6,7,8,9,9a,10-hexahydro-3H-benzo[g]pteridin-4-one], the activation at 1 µM lay within 20 to 50%.
The same measure, in the same setting: for `CCC1=Nc2c(nc(N)[nH]c2=O)NC1(C)C` [wsg1006, 2-Amino-6-ethyl-7,7-dimethyl-7,8-dihydro-3H-pteridin-4-one] the value was 20 to 50%; for `CC1(CCc2ccccc2)Nc2nc(N)[nH]c(=O)c2N=C1CO` (stereo not shown) [wsg1018, 2-Amino-6-hydroxymethyl-7-methyl-7-phenethyl-7,8-dihydro-3H-pteridin-4-one], 20 to 50%.
The same measure, in the same setting: in the case of `CC1Nc2nc(N)[nH]c(=O)c2NC1C` (stereo not shown) [wsg1010, 2-Amino-6,7-dimethyl-4-oxo-3,4,5,6,7,8-hexahydro-pteridin-5-ium Cl-] it was 20 to 50%.
Still for that read-out and setting: in the case of `CCC1(CC)Nc2nc(N)[nH]c(=O)c2N=C1CO` [wsg1014, 2-Amino-7,7-diethyl-6-hydroxymethyl-7,8-dihydro-3H-pteridin-4-one] it was less than 20%.
